Legend:
Type in all cases: in vivo
[1] = tested on: “Momotaro” tomato; experiment: Example 6 salt stress test (tomato), soil culture; settings: 23° C., 100 ppm, 2 weeks; for Fresh weight, relative value (untreated plot = 100), Test 1 / Fresh weight, relative value (untreated plot = 100), Test 4 / Fresh weight, relative value (untreated plot = 100), Test 3 / Fresh weight, relative value (untreated plot = 100), Test 2: soil culture; for Fresh weight, relative value (untreated plot = 100), Test 1: EC 1.3 mS/cm; for Fresh weight, relative value (untreated plot = 100), Test 1 / Fresh weight, relative value (untreated plot = 100), Test 3 / Fresh weight, relative value (untreated plot = 100), Test 2 / Fresh weight, relative value (untreated plot = 100), Comparison 1: pF 1.7, two-leaf stage; for Fresh weight, relative value (untreated plot = 100), Test 4 / Fresh weight, relative value (untreated plot = 100), Test 2: EC 2 mS/cm; for Fresh weight, relative value (untreated plot = 100), Test 4: pF 1.7, five-leaf stage; for Fresh weight, relative value (untreated plot = 100), Test 3: EC 3 mS/cm; for Fresh weight, relative value (untreated plot = 100), Comparison 1: stress-free: soil culture, EC 1 mS/cm
Description: (1) A. soil culture (a) Comparative example conditions (stress-free optimum growth conditions) Cultivation temperature: 23° C., EC: 1.0 mS/cm (cultivation with Kureha gardening soil), pF value: 1.7 (capillaries in a saturated state) (b) Example conditions (salt stress conditions) Cultivation temperature: 23° C., EC: 1.3, 2.0, 3.0 mS/cm (cultivation with Kureha gardening soil), pF value: 1.7 (capillaries in a saturated state)
(§1) (a) Comparative example conditions (stress-free optimum growth conditions) Cultivation temperature: 23° C., EC: 1.3 mS/cm (Otsuka ½A formulation) (b) Example conditions (salt stress conditions) Cultivation temperature: 23° C., EC: 2.7, 3.9, 4.8 mS/cm (cultivation with Kureha gardening soil) (2) Illuminance: 5000 Lux (fluorescent light), light/dark cycle: 16 hours/8 hours (3) Employed soil: Kureha gardening soil manufactured by Kureha Corporation (fertilizer components: N:P:K=0.4:1.9:0.6 g/kg soil) (4) Employed solution culture medium: Otsuka ½A formulation: a mixed solution of Otsuka House No. 1 (N:P:K=10:8:27) 7.5 g/10 L and Otsuka House No. 2 (N:P:K:Ca=10:0:0:23) 5 g/10 L, total nitrogen: 130 ppm, phosphoric acid: 60 ppm, potassium: 203 ppm) (5) Cultivation period: 2 weeks (6) Plant preparation: A 50-cell tray was filled with Kureha gardening soil manufactured by Kureha Corporation (fertilizer components: N:P:K=0.4:1.9:0.6 g/kg soil), and seeds of a “Momotaro” tomato or tubers of a “Danshaku” potato were sowed, thinly covered with Kureha gardening soil, and sufficiently watered to allow the seeds or the tubers to sprout. When the leaves in the 2-leaf stage or the 5-leaf stage fully unfolded, the soil on the tomato roots or the potato roots was carefully washed away with running water, and a test was performed. (7) Test chemicals: POE (20) sorbitan monolauric acid ester: Reodol TW-L120 (Kao Corporation) POE (20) sorbitan monopalmitic acid ester: Reodol TW-P120 (Kao Corporation) POE (20) sorbitan monostearic acid ester: Reodol TW-S120 (Kao Corporation) POE (20) sorbitan monooleic acid ester: Reodol TW-O120 (Kao Corporation) Sorbitan monooleic acid ester: Emasol 0-10(F) (Kao Corporation) POE (6) sorbitan monooleic acid ester: Reodol TW-O106 (Kao Corporation) Alkyl (number of carbon atoms: 10) polyglucoside: AG-10LK (Kao Corporation) Alkyl (number of carbon atoms: 12 to 14) polyglucoside: AG-124 (Kao Corporation) Sucrose fatty acid ester (number of carbon atoms: C18, HLB: 5): S-570 (Mitsubishi-Kagaku Foods Corporation) Sucrose fatty acid ester (number of carbon atoms: C18, HLB: 9): S-970 (Mitsubishi-Kagaku Foods Corporation) Sucrose fatty acid ester (number of carbon atoms: C18, HLB: 11): S-1170 (Mitsubishi-Kagaku Foods Corporation) Sucrose fatty acid ester (number of carbon atoms: C18, HLB: 15): 5-1570 (Mitsubishi-Kagaku Foods Corporation) Sucrose fatty acid ester (number of carbon atoms: C16, HLB: 15): P-1570 (Mitsubishi-Kagaku Foods Corporation) Sucrose fatty acid ester (number of carbon atoms: C18:1, HLB: 15): O-1570 (Mitsubishi-Kagaku Foods Corporation) (8) Amount of treatment solution applied: 10 ml/specimen for leaf spraying, 250 ml/specimen for hydroponic culture (treatment of underground portion) (9) 50 ml/specimen for soil culture (treatment of underground portion)
The environmental conditions in a climatic chamber were controlled so as to have a temperature of 23° C., an illuminance by a fluorescent light of 5000 Lux, and a daily light-dark cycle of a 16-hour light period and an 8-hour dark period. Tomatoes as prepared above were transplanted in size-3 (9 cm) pots. During the test period, the EC value was controlled by adding a suitable amount of a 10% NaCl solution once a day so as to attain a specific salt stress value. A treatment solution containing a compound of Table 1 in a specific concentration (the remainder was water) was prepared and sprayed onto the leaves or applied to the underground portions. […]

[2] = tested on: “Momotaro” tomato; experiment: Example 6 salt stress test (tomato), hydroponic culture; settings: 23° C., 100 ppm, 2 weeks; for Fresh weight, relative value (untreated plot = 100), Test 5 / Fresh weight, relative value (untreated plot = 100), Test 8 / Fresh weight, relative value (untreated plot = 100), Test 6 / Fresh weight, relative value (untreated plot = 100), Test 7: hydroponic culture; for Fresh weight, relative value (untreated plot = 100), Test 5: EC 2.7 mS/cm; for Fresh weight, relative value (untreated plot = 100), Test 5 / Fresh weight, relative value (untreated plot = 100), Test 6 / Fresh weight, relative value (untreated plot = 100), Test 7 / Fresh weight, relative value (untreated plot = 100), Comparison 2: two-leaf stage; for Fresh weight, relative value (untreated plot = 100), Test 8 / Fresh weight, relative value (untreated plot = 100), Test 6: EC 3.9 mS/cm; for Fresh weight, relative value (untreated plot = 100), Test 8: five-leaf stage; for Fresh weight, relative value (untreated plot = 100), Test 7: EC 4.8 mS/cm; for Fresh weight, relative value (untreated plot = 100), Comparison 2: stress-free: hydroponic culture, EC 1.3 mS/cm
Description: as §1
The environmental conditions in a climatic chamber were controlled so as to have a temperature of 23° C., an illuminance by a fluorescent light of 5000 Lux, and a daily light-dark cycle of a 16-hour light period and an 8-hour dark period. Tomatoes as prepared above were planted in 250 ml polyethylene bottles each filled with a solution culture medium having a different EC value. Different EC values were achieved by taking a ½ Otsuka A formulation having an EC value of 1.3 as a standard and suitably increasing the fertilizer concentration through proportional counting. A treatment solution containing a compound of Table 1 in a specific concentration (the remainder was water) was prepared and sprayed onto the leaves or applied to the underground portion. In each test plot, 10 specimens were prepared for replication, and the average of the fresh weight of each specimen 2 weeks after the beginning of the test was calculated and expressed as a relative value where “100” indicates a result identical to that of the untreated plot of a given EC condition. […]

[3] = tested on: tomato; experiment: Example 7 drying stress test (tomato), soil culture; settings: 23° C., 100 ppm, 2 weeks; for Fresh weight, relative value (untreated plot = 100), Comparison 1: stress-free: tomato soil culture, EC 1, pF 1.7, two-leaf stage; for Fresh weight, relative value (untreated plot = 100), Test 1 / Fresh weight, relative value (untreated plot = 100), Test 4 / Fresh weight, relative value (untreated plot = 100), Test 2 / Fresh weight, relative value (untreated plot = 100), Test 3: tomato soil culture; for Fresh weight, relative value (untreated plot = 100), Test 1: EC 1, pF 2.8, two-leaf stage; for Fresh weight, relative value (untreated plot = 100), Test 4: EC 1, pF 3.5, five-leaf stage; for Fresh weight, relative value (untreated plot = 100), Test 2: EC 1, pF 3.5, two-leaf stage; for Fresh weight, relative value (untreated plot = 100), Test 3: EC 1, pF 4.1, two-leaf stage
Description: The environmental conditions in a climatic chamber were controlled so as to have a temperature of 23° C., an illuminance by a fluorescent light of 5000 Lux, and a daily light-dark cycle of a 16-hour light period and an 8-hour dark period. Tomatoes as prepared above were transplanted in size-3 (9 cm) pots. During the test period, the pF value was controlled by adding a suitable amount of tap water once a day so as to attain a specific drying stress value. A treatment solution containing a compound of Table 1 in a specific concentration (the remainder was water) was prepared and sprayed onto the leaves or applied to the underground portions. […] A comparative example was constructed to reflect the drying stress-free optimum cultivation conditions to investigate the plant energizing ability. […] Moreover, when the products of the present invention and the comparative products were compared, the stress tolerance imparting ability of the products of the present invention was higher in respective drying stress conditions.

O=C(O)[C@@H]1CCCN1 [Comparative product 2, Proline, reference compound]
Fresh weight, relative value (untreated plot = 100), Test 1 ([1]; underground portion): 103 | Fresh weight, relative value (untreated plot = 100), Test 4 ([1]; underground portion): 100 | Fresh weight, relative value (untreated plot = 100), Test 3 ([1]; underground portion): 100 | Fresh weight, relative value (untreated plot = 100), Test 5 ([2]; leaf): 102 | Fresh weight, relative value (untreated plot = 100), Test 5 ([2]; underground portion): 103 | Fresh weight, relative value (untreated plot = 100), Test 8 ([2]; leaf): 101 | Fresh weight, relative value (untreated plot = 100), Test 8 ([2]; underground portion): 100 | Fresh weight, relative value (untreated plot = 100), Test 6 ([2]; leaf): 102 | Fresh weight, relative value (untreated plot = 100), Test 6 ([2]; underground portion): 103 | Fresh weight, relative value (untreated plot = 100), Test 7 ([2]; leaf): 102 | Fresh weight, relative value (untreated plot = 100), Test 7 ([2]; underground portion): 102 | Fresh weight, relative value (untreated plot = 100), Comparison 2 ([2]; leaf): 102 | Fresh weight, relative value (untreated plot = 100), Comparison 2 ([2]; underground portion): 103 | Fresh weight, relative value (untreated plot = 100), Comparison 1 ([3]; leaf): 101 | Fresh weight, relative value (untreated plot = 100), Comparison 1 ([3]; underground portion): 102 | Fresh weight, relative value (untreated plot = 100), Test 1 ([3]; leaf): 102 | Fresh weight, relative value (untreated plot = 100), Test 1 ([3]; underground portion): 102 | Fresh weight, relative value (untreated plot = 100), Test 4 ([3]; leaf): 101 | Fresh weight, relative value (untreated plot = 100), Test 4 ([3]; underground portion): 100 | Fresh weight, relative value (untreated plot = 100), Test 2 ([3]; leaf): 102 | Fresh weight, relative value (untreated plot = 100), Test 2 ([3]; underground portion): 103 | Fresh weight, relative value (untreated plot = 100), Test 3 ([3]; leaf): 101 | Fresh weight, relative value (untreated plot = 100), Test 3 ([3]; underground portion): 101

C[N+](C)(C)CC(=O)[O-] [Comparative product 3, Glycine betaine, reference compound]
Fresh weight, relative value (untreated plot = 100), Test 1 ([1]; leaf): 103 | Fresh weight, relative value (untreated plot = 100), Test 4 ([1]; leaf): 101 | Fresh weight, relative value (untreated plot = 100), Test 2 ([1]; leaf): 103 | Fresh weight, relative value (untreated plot = 100), Test 3 ([1]; leaf): 103 | Fresh weight, relative value (untreated plot = 100), Comparison 1 ([1]; leaf): 102 | Fresh weight, relative value (untreated plot = 100), Test 5 ([2]; leaf): 103 | Fresh weight, relative value (untreated plot = 100), Test 8 ([2]; leaf): 101 | Fresh weight, relative value (untreated plot = 100), Test 6 ([2]; leaf): 103 | Fresh weight, relative value (untreated plot = 100), Test 7 ([2]; leaf): 102 | Fresh weight, relative value (untreated plot = 100), Comparison 2 ([2]; leaf): 102 | Fresh weight, relative value (untreated plot = 100), Comparison 1 ([3]; leaf): 102 | Fresh weight, relative value (untreated plot = 100), Test 1 ([3]; leaf): 102 | Fresh weight, relative value (untreated plot = 100), Test 4 ([3]; leaf): 101 | Fresh weight, relative value (untreated plot = 100), Test 2 ([3]; leaf): 103 | Fresh weight, relative value (untreated plot = 100), Test 3 ([3]; leaf): 103

OC[C@H]1O[C@H](OC[C@H]2O[C@H](O[C@]3(CO)O[C@H](CO)[C@@H](O)[C@@H]3O)[C@H](O)[C@@H](O)[C@@H]2O)[C@H](O)[C@@H](O)[C@H]1O [Comparative product 4, Raffinose, reference compound]
Fresh weight, relative value (untreated plot = 100), Test 5 ([2]; leaf): 103 | Fresh weight, relative value (untreated plot = 100), Test 8 ([2]; leaf): 102 | Fresh weight, relative value (untreated plot = 100), Test 6 ([2]; leaf): 103 | Fresh weight, relative value (untreated plot = 100), Test 7 ([2]; leaf): 103 | Fresh weight, relative value (untreated plot = 100), Comparison 2 ([2]; leaf): 102 | Fresh weight, relative value (untreated plot = 100), Comparison 1 ([3]; leaf): 102 | Fresh weight, relative value (untreated plot = 100), Test 1 ([3]; leaf): 103 | Fresh weight, relative value (untreated plot = 100), Test 4 ([3]; leaf): 101 | Fresh weight, relative value (untreated plot = 100), Test 2 ([3]; leaf): 103 | Fresh weight, relative value (untreated plot = 100), Test 3 ([3]; leaf): 103

Alkyl (C10) polyglycoside [Product of present invention 15]
Fresh weight, relative value (untreated plot = 100), Test 1 ([1]; leaf): 121 | Fresh weight, relative value (untreated plot = 100), Test 4 ([1]; leaf): 134 | Fresh weight, relative value (untreated plot = 100), Test 2 ([1]; leaf): 142 | Fresh weight, relative value (untreated plot = 100), Test 3 ([1]; leaf): 121 | Fresh weight, relative value (untreated plot = 100), Comparison 1 ([1]; leaf): 101 | Fresh weight, relative value (untreated plot = 100), Test 5 ([2]; leaf): 125 | Fresh weight, relative value (untreated plot = 100), Test 8 ([2]; leaf): 138 | Fresh weight, relative value (untreated plot = 100), Test 6 ([2]; leaf): 145 | Fresh weight, relative value (untreated plot = 100), Test 7 ([2]; leaf): 125 | Fresh weight, relative value (untreated plot = 100), Comparison 2 ([2]; leaf): 101 | Fresh weight, relative value (untreated plot = 100), Comparison 1 ([3]; leaf): 101 | Fresh weight, relative value (untreated plot = 100), Test 1 ([3]; leaf): 121 | Fresh weight, relative value (untreated plot = 100), Test 4 ([3]; leaf): 139 | Fresh weight, relative value (untreated plot = 100), Test 2 ([3]; leaf): 147 | Fresh weight, relative value (untreated plot = 100), Test 3 ([3]; leaf): 126

— patent US20110100079A1, “METHOD FOR IMPARTING STRESS TOLERANCE TO PLANT” (priority 2007, published 2011)
